Where a name gives a salt, the structure may show the parent alone.
Tests used:
alkaline phosphatase [1] = assay: Chemiluminescence with alkaline phosphatase, Test Example 1-1 (FIG. 1); assay type: biochemical; conditions: 0.2 mg/ml, 0.1M diethanolamine/HCl buffer pH 10.0, 37° C.; versus AMPPD
Description: 3-isopropoxy-4,4-diisopropyl-3-(3'-phosphoryloxy)phenyl-1,2-dioxetane disodium salt (Compound [40]) synthesized in Example 26 was dissolved in a 0.1M diethanolamine/hydrochloric acid buffer solution (pH 10.0) containing 1 mM magnesium chloride and 0.05% sodium azide, in such an amount that the concentration of the dissolved Compound [40]) was 0.2 mg/ml, and the solution was stirred.
(§1) 300 μl of this solution was placed in a cartridge for assay and incubated for 90 minutes.
(§2) After this incubation, 20 μl of an enzyme solution was added to the above solution, which enzyme solution was prepared by diluting an alkaline phosphatase solution for enzyme immunoassay (made by Boehringer Mannheim Co., Ltd.) (3 mg/0.3 ml) 154 times and then 10^5 times with a 50 mM Tris/cl buffer solution (pH 7.2) containing 0.15M sodium chloride, 1 mM magnesium chloride, 0.1 mM zinc chloride and 0.1% sodium azide.
(§3) The luminescence of the above diluted enzyme solution was measured at 37° C. at regular time intervals.
(§4) For comparison, the luminescence of a commercially available AMPPD (3-(2'-spiroadamantan)-4-methoxy-4-(3"-phosphoryloxy)phenyl-1,2-dioxetane disodium salt was measured under the same conditions as mentioned above, by replacing the Compound [40] with AMPPD in accordance with the above-mentioned procedure.

[2] = Thermal stability: half-life by 1H NMR in methanol-d4 heated at 60° C. (Test Examples 1-2, 2-2); assay type: physicochemical; conditions: for half-life at 60° C.: 1 mg in methanol-d4 (0.35 ml), 1H NMR at intervals of 2 to 3 hours; for thermal stability compared with AMPPD: methanol-d4, 60° C., versus AMPPD
Description: 1 mg of 3-isopropoxy-4,4-diisopropyl-3-(3'-phosphoryloxy)phenyl-1,2-dioxetane disodium salt (Compound [40]) synthesized in Example 26 was dissolved in methanol-d4 (0.35 ml), and the solution was heated at 60° C. in a thermostated bath, so that the solution was subjected to ^1 HNMR measurement at intervals of 2 to 3 hours.
In the above ^1 HNMR measurement, Compound [40] was replaced by the commercially available AMPPD (3-(2'-spiroadamantan)-4-methoxy-4-(3"-phosphoryloxy)phenyl-1,2-dioxetane disodium salt), whereby the half-life of AMPPD at 60° C. was also calculated in the same manner as mentioned above.
1 mg of 3-t-butyl-4-methoxy-3-neopentyloxymethyl-4-(3'-phosphoryloxy)phenyl-1,2-dioxetane disodium salt (Compound [86]) synthesized in Example 66 was dissolved in methanol-d4 (0.35 ml), and the solution was heated at 60° C. in a thermostated bath, so that the solution was subjected to ^1 HNMR measurement at intervals of 2 to 3 hours.

alkaline phosphatase [3] = assay: Chemiluminescence with alkaline phosphatase in presence of quaternary ammonium salt (BDMG), Test Example 2-1 (FIG. 2); assay type: biochemical; conditions: 0.2 mg/ml, 0.1M diethanolamine/HCl buffer pH 10.0 with 0.4 mg/ml BDMG, 37° C.; versus AMPPD
Description: 3-t-butyl-4-methoxy-3-neopentyloxymethyl-4-(3'-phosphoryloxy)phenyl-1,2-dioxetane disodium salt (Compound [86]) synthesized in Example 66 was dissolved in a 0.1M diethanolamine/hydrochloric acid buffer solution (pH 10.0 ) containing 0.4 mg/ml of quaternary ammonium salt (BDMG), 1 mM magnesium chloride and 0.05% sodium azide, in such an amount that the concentration of the dissolved Compound [86] was 0.2 mg/ml, and the solution was stirred.
as §1
as §2, with “times” for “times and then 10^5 times”
as §3
as §4, with “salt)” for “salt”, “[86]” for “[40]”

With `CC(C)OC1(c2cccc(OP(=O)(O)O)c2)OOC1(C(C)C)C(C)C` (stereo not shown) [Compound [40], 3-isopropoxy-4,4-diisopropyl-3-(3'-phosphoryloxy)phenyl-1,2-dioxetane disodium salt] the “chemiluminescence intensity compared with AMPPD” value (alkaline phosphatase [1]) was “higher intensity”, the “half-life at 60° C.” value [2] was 14.3 h and the “thermal stability compared with AMPPD” value [2] was “thermally more stable”.

In the case of `COC1(c2cccc(OP(=O)(O)O)c2)OOC1(COCC(C)(C)C)C(C)(C)C` (stereo not shown) [Compound [86], 3-t-butyl-4-methoxy-3-neopentyloxymethyl-4-(3'-phosphoryloxy)phenyl-1,2-dioxetane disodium salt], the “half-life at 60° C.” value [2] is reported as 18.6 h, the “thermal stability compared with AMPPD” value [2] is reported as “thermally more stable” and the “chemiluminescence intensity compared with AMPPD” value (alkaline phosphatase [3]) is reported as “higher intensity”.

In the case of `COC1(c2cccc(OP(=O)(O)O)c2)OOC12C1CC3CC(C1)CC2C3` (stereo not shown) [AMPPD, 3-(2'-spiroadamantan)-4-methoxy-4-(3"-phosphoryloxy)phenyl-1,2-dioxetane disodium salt, reference compound], the “half-life at 60° C.” value [2] is reported as 5.5 h.
